We go through 18 molecules from US20250228835A1, “PYRIDINYLOXYPYRIDINES AND RELATED COMPOUNDS AND THEIR USE IN TREATING MEDICAL CONDITIONS” (Rectify Pharmaceuticals, Inc., priority 2024, published 2025).

Type in all cases: cell-based
For one experiment, the target named is T1, ABCA4 P1380L (Homo sapiens, UniProt P78363, P1380L).
T1 construct: expressed in transfected cells
Kind of experiment: A4 correction dose-response assay: ABCA4 P1380L HiBit protein expression. To be noted: HEK-293 cells stably expressing HiBit-tagged ABCA4 P1380L; 24 h treatment; top concentration 30 μM; read-out: ABCA4 P1380L EC50, Emax. Put shortly:
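Cells transfected with HiBit-tagged human ABCA4 P1380L cDNA were treated for 24 h at 37°C with an eleven-point dilution series (top final 30 μM, 0.3% DMSO).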
On the technique in general: HiBiT is a short tag that completes a luciferase, so light tracks the accessible tagged protein.

Another experiment concerns the target T2, ABCB4 WT (Homo sapiens, UniProt P21439).
T2 construct: expressed in transfected cells
Kind of experiment: ABCB4 WT assay: HiBit protein expression. To be noted: HEK-293 cells stably expressing HiBit-tagged ABCB4 WT; 24 h treatment; top concentration 30 μM; read-out: ABCB4 WT EC50, Emax. The gist of the method: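 HEK-293 cells stably expressing HiBit-tagged human ABCB4 WT, treated 24 h at 37 °C with 11-dose 3-fold dilutions, top final 30 μM in 0.3% DMSO. HiBit lytic reagent luminescence read after 1 h at 25 °C; Emax and EC50 derived.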

The next experiment has as its target T3, ABCD2 WT (Homo sapiens, UniProt Q9UBJ2).
T3 construct: expressed in transfected cells
T3 sequence (Q9UBJ2 1-740): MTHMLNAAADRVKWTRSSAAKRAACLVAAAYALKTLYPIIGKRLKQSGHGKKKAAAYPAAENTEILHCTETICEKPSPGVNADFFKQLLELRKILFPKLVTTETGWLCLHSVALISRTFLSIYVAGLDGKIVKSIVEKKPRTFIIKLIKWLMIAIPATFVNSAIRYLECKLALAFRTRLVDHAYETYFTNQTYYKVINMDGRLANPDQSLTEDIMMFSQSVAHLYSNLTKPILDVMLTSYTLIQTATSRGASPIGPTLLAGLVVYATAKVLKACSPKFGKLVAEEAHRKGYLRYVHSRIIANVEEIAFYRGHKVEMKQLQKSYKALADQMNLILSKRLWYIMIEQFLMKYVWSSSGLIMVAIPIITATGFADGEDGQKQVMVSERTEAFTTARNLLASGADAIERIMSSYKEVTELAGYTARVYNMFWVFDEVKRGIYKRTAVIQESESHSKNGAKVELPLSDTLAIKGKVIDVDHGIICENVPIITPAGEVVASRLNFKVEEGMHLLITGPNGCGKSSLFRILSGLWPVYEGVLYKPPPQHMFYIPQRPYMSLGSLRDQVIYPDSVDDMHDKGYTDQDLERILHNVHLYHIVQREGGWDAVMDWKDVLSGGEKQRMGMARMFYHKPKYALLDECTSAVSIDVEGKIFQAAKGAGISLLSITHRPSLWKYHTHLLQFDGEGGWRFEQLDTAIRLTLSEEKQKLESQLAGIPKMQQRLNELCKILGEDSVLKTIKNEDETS
Kind of experiment: D2 correction dose-response assay: ABCD2 WT HiBit protein expression. Conditions: HEK-293/ABCD2 WT cells, 24 hours treatment, HiBit luminescence; class combines EC50 and Mean MaxAct (fold); read-out: ABCD2 WT EC50, Emax. Put shortly:
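HEK-293 cells stably expressing HiBit-tagged human ABCD2 WT were treated with 11 doses (3-fold dilutions, top final 30 μM, 0.3% DMSO) for 24 h at 37 °C. Expression was measured by HiBit lytic luminescence after 1 h at 25 °C, giving EC50 and Emax.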

The term EC50 denotes the concentration giving half of the maximal effect.

T2 sequence (P21439 whole entry): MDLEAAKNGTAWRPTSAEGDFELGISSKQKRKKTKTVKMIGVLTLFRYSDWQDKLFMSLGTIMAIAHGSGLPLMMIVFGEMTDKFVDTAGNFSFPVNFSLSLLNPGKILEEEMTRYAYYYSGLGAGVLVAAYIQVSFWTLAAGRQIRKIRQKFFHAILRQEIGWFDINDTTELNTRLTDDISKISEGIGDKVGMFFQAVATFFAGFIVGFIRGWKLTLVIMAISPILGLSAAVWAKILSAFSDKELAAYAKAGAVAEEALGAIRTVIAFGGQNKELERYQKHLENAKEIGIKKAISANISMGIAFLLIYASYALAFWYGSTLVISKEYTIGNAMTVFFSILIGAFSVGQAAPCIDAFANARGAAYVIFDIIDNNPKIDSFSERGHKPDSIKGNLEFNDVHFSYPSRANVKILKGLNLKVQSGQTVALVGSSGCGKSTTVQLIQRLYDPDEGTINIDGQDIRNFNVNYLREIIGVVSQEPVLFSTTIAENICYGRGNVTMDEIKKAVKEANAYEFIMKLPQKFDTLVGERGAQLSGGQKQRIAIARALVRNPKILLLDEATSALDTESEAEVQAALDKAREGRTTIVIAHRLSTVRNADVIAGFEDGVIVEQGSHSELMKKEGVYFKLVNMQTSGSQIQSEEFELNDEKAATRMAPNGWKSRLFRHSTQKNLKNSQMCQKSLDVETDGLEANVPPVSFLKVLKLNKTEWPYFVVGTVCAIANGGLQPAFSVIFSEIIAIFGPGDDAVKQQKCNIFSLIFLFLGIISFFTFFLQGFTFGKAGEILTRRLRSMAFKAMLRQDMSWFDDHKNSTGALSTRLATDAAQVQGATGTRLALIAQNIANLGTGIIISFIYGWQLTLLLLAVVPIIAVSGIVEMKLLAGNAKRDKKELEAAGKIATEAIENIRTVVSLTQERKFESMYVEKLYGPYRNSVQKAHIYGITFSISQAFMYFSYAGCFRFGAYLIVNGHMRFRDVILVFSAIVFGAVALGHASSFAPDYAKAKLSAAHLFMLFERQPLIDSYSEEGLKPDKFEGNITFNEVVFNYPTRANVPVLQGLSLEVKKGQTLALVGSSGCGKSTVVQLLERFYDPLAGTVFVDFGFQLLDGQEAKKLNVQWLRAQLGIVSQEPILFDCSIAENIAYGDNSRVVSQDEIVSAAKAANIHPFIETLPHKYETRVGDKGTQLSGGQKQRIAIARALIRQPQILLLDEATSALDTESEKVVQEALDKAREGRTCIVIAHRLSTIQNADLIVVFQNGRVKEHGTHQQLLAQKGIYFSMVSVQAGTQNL
T1 sequence (P78363 whole entry P1380L): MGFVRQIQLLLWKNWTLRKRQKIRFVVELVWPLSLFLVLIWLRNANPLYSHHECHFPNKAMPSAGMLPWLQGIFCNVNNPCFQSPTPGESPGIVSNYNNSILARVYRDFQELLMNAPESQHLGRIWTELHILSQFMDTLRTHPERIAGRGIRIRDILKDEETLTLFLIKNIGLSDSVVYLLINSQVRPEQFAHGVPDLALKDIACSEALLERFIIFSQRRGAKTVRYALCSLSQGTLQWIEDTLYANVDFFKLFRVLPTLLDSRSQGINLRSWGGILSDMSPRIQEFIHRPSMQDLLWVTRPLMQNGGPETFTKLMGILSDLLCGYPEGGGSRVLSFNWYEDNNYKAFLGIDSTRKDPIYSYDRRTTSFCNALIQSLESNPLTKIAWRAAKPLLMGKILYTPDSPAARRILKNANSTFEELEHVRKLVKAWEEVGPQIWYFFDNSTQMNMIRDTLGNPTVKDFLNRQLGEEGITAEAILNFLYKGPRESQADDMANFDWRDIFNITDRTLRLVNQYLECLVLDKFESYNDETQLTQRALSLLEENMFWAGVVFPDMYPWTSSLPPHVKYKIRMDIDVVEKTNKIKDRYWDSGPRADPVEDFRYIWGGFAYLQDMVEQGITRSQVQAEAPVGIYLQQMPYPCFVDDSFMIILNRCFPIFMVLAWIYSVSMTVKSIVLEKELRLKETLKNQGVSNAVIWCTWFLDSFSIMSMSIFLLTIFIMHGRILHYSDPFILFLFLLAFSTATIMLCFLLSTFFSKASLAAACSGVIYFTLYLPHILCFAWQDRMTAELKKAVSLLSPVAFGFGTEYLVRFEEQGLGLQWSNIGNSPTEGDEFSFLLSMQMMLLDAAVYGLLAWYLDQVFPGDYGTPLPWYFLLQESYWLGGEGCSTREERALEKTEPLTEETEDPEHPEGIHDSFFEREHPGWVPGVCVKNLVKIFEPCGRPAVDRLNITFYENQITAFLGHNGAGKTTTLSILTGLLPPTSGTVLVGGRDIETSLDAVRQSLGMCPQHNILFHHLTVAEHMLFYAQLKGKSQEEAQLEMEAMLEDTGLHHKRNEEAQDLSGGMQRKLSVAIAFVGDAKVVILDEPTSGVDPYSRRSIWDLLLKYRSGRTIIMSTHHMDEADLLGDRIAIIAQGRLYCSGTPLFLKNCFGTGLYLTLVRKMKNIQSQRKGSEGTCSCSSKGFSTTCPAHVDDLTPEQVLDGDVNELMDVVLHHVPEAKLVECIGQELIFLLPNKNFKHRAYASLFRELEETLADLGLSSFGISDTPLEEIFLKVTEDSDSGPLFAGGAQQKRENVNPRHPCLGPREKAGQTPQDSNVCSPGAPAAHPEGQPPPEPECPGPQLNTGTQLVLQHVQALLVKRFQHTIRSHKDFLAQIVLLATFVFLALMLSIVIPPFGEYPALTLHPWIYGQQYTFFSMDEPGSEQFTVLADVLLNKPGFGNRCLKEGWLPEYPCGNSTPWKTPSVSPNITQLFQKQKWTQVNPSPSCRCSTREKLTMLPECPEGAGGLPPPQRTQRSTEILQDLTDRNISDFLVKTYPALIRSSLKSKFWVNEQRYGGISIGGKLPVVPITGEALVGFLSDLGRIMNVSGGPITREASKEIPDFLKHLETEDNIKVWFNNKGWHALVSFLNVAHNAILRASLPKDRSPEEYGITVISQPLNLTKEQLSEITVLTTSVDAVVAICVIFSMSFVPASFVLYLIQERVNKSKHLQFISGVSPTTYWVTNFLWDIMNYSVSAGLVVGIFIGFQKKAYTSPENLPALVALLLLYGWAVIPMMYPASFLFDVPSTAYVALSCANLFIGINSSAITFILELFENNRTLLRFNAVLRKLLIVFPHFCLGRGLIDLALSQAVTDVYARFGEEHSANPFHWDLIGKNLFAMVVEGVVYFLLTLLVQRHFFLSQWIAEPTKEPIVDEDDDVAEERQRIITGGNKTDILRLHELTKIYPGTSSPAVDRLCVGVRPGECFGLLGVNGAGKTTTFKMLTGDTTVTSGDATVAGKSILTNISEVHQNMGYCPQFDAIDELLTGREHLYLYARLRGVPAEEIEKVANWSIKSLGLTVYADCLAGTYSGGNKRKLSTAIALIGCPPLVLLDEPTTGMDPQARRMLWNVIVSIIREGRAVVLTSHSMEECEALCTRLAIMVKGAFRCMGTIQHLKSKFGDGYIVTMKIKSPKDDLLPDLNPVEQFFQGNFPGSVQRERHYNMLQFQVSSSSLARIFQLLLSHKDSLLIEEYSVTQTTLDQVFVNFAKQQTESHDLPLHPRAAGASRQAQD

Consider `Cc1cc(C)c(Oc2nc(N3CCN(C(=O)N(C)C)CC3)ccc2NS(C)(=O)=O)c(C)c1` [Compound I-33], for which the EC50 on ABCA4 P1380L is > 25 µM; at ABCB4 WT, 10 to 25 µM; at ABCD2 WT it was 10 to 25 µM.

`Cc1cc(C)c(Oc2nc(N3CCN(C(=O)C(C)(C)C)CC3)ccc2NS(C)(=O)=O)c(C)c1` [Compound I-34]: the concentration giving a half-maximal response (EC50) at ABCA4 P1380L is 10 to 25 µM; on ABCB4 WT it was 1 to 10 µM; at ABCD2 WT, > 25 µM.

Regarding `Cc1cc(C)c(Oc2nc(N3C4CC3CN(C(=O)C3CC3)C4)ccc2NS(C)(=O)=O)c(C)c1` [Compound I-35], the EC50 at ABCA4 P1380L was > 25 µM; on ABCB4 WT, ≥ 25 µM; on ABCD2 WT, > 25 µM.

Turning to `Cc1cc(C)c(Oc2nc(-c3cnc(C#N)c(Cl)c3)ccc2NS(C)(=O)=O)c(C)c1` [Compound I-36], the values for the half-maximal effective concentration (EC50) on ABCA4 P1380L, at ABCB4 WT and at ABCD2 WT were < 1 µM, ≥ 25 µM and < 1 µM, respectively.

With `Cc1cc(C2CC2)nc(C)c1Oc1nc(-c2cncc(Cl)c2)ccc1NS(C)(=O)=O` [Compound I-37], the EC50 at ABCA4 P1380L, on ABCB4 WT and at ABCD2 WT was < 1 µM in each case.

Regarding `Cc1cc(C)c(Oc2nc(N3CC4(CN(C(=O)C5CC5)C4)C3)ccc2NS(C)(=O)=O)c(C)c1` [Compound I-38], the EC50 is > 25 µM on ABCA4 P1380L, ≥ 25 µM on ABCB4 WT and > 25 µM on ABCD2 WT.

As to `Cc1cc(C)c(Oc2nc(-c3cncc(C#N)c3)ccc2NS(C)(=O)=O)c(C)c1` [Compound I-39], the 50% effective concentration (EC50) on ABCA4 P1380L, at ABCB4 WT and on ABCD2 WT was < 1 µM in each case.

In the case of `Cc1cc(C)c(Oc2nc(-c3cncc(Cl)c3)ccc2NS(C)(=O)=O)c(C2CC2)n1` [Compound I-40], the EC50 on ABCA4 P1380L, at ABCB4 WT and on ABCD2 WT was < 1 µM in each case.

For the molecule `Cc1cc(C)c(Oc2nc(-c3cncc(Cl)c3)ccc2NS(=O)(=O)C2COC2)c(C)c1` [Compound I-41], the concentration giving a half-maximal response (EC50) is < 1 µM on ABCA4 P1380L, ≥ 25 µM at ABCB4 WT and < 1 µM on ABCD2 WT.

Take `Cc1cc(C)c(Oc2nc(-c3cncc(Cl)c3)ccc2NS(=O)(=O)C2CC2)c(C)n1` [Compound I-238]: the EC50 at ABCA4 P1380L is 1 to 10 µM; at ABCB4 WT it was < 25 µM; at ABCD2 WT, 1 to 10 µM.

Consider `Cc1cc(C)c(Oc2nc(-c3ccnc(C#N)c3)ccc2NS(C)(=O)=O)c(C)n1` [Compound I-239], for which the EC50 on ABCA4 P1380L is < 1 µM; at ABCB4 WT, < 25 µM; on ABCD2 WT, < 1 µM.

Consider `Cc1cc(C(F)(F)F)nc(C)c1Oc1nc(-c2cncc(C#N)c2)ccc1NS(C)(=O)=O` [Compound I-240], for which the values for the EC50 at ABCA4 P1380L, on ABCB4 WT and at ABCD2 WT were < 25 µM, < 1 µM and < 1 µM, respectively.

`Cc1cc(C)c(Oc2nc(-c3cccc(C#N)n3)ccc2NS(C)(=O)=O)c(C)n1` [Compound I-241]: the EC50 is > 25 µM at ABCA4 P1380L, 10 to 25 µM on ABCB4 WT and 10 to 25 µM at ABCD2 WT.

Turning to `CCCS(=O)(=O)Nc1ccc(-c2cncc(C#N)c2)nc1Oc1c(C)cc(C)nc1C` [Compound I-242], the EC50 at ABCA4 P1380L is 1 to 10 µM; on ABCB4 WT it was 1 to 10 µM; at ABCD2 WT, > 25 µM.

As for `Cc1cc(C)c(Oc2nc(-c3cncc(C#N)c3)ccc2NS(=O)(=O)C2CCC2)c(C)n1` [Compound I-243], the EC50 is < 1 µM on ABCA4 P1380L, < 1 µM on ABCB4 WT and 10 to 25 µM at ABCD2 WT.

Regarding `Cc1cc(C)c(Oc2nc(N3CCC(C#N)CC3)ccc2NS(C)(=O)=O)c(C)c1` [Compound I-244], the EC50 at ABCA4 P1380L is 10 to 25 µM; on ABCB4 WT, ≥ 25 µM; at ABCD2 WT, 10 to 25 µM.

On to `Cc1cc(C)c(Oc2nc(-c3cncc(C#N)c3)ccc2S(=N)(=O)C2CC2)c(C)c1` (stereo not drawn) [Compound I-245], for which the results for the EC50 at ABCA4 P1380L, at ABCB4 WT and on ABCD2 WT were 1 to 10 µM, 1 to 10 µM and < 1 µM, respectively.

Consider `Cc1cc(C)c(Oc2nc(-c3cncc(Cl)c3)ncc2NS(C)(=O)=O)c(C)n1` [Compound I-246], for which the EC50 is < 1 µM at ABCA4 P1380L, < 25 µM on ABCB4 WT and < 1 µM on ABCD2 WT.
